Reference: patent US20180244611A1, “Modulators of the Cystic Fibrosis Transmembrane Conductance Regulator Protein and Methods of Use” (AbbVie S.à.r.l., priority 2017, published 2018)

What was measured:
F508delCFTR [1] = molecular target: T1, F508delCFTR (Homo sapiens, UniProt P13569, DEL508-508); experiment: Cell Surface Expression-Horse Radish Peroxidase (CSE-HRP) assay, test compound without co-corrector; type: cell-based; settings: for Emax: maximum at any tested concentration, normalized to positive control, without co-corrector; for EC50: test compound without co-corrector;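 as to Emax: percent of on-plate 2 µM positive control corrector response over DMSO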
T1 construct: expressed in transfected cells; host or cells: CFBE41o- human lung-derived epithelial cells (CFBE41o-F508delCFTR-HRP), doxycycline-inducible
T1 sequence (P13569 with tags, fused parts or gaps DEL508-508): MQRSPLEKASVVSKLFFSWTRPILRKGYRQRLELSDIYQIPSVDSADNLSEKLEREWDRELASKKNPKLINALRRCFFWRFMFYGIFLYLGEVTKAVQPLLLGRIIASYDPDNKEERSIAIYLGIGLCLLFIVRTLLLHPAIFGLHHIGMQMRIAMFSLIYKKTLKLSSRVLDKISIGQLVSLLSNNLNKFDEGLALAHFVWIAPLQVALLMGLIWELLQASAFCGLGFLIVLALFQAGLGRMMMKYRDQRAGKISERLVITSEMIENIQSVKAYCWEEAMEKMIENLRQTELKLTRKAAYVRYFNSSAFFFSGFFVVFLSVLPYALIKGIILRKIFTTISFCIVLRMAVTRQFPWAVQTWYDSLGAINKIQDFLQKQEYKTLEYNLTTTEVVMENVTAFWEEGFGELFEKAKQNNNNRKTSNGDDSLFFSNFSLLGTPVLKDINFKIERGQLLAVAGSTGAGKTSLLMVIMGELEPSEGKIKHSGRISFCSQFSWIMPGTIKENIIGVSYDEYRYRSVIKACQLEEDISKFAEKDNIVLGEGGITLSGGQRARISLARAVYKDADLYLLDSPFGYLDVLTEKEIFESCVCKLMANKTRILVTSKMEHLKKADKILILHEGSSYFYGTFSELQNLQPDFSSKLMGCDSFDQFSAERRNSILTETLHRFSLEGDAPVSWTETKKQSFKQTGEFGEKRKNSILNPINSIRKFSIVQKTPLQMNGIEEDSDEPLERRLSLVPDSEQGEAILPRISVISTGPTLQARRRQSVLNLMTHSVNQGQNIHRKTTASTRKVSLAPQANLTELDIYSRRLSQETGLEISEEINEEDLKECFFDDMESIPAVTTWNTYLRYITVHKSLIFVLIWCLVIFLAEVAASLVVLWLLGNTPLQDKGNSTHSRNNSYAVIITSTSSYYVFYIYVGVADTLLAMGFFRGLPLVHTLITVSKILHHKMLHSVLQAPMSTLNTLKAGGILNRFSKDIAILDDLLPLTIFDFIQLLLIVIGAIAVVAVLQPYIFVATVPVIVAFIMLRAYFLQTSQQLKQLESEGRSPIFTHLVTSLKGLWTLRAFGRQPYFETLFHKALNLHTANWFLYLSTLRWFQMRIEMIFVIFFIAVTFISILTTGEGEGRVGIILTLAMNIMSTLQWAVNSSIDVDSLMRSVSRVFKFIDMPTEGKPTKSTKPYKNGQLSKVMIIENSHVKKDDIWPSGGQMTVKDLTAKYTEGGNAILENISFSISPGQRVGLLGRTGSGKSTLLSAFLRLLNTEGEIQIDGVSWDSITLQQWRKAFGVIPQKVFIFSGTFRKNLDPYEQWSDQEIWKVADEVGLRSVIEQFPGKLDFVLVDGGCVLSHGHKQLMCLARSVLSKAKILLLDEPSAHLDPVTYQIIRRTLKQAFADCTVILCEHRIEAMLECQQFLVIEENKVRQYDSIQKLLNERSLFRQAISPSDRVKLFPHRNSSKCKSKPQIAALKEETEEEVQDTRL
Method in brief: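 Compound without co-corrector was tested at eight 3-fold concentrations, top 20 μM, for 18-24 h at 33° C on doxycycline-induced (0.5 μg/mL, 72 h) CFBE41o- F508delCFTR-HRP cells. After DPBS washes, luminol luminescence gave % activity relative to on-plate positive control minus DMSO; EC50 came from triplicate-plate sigmoidal fitting.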

F508delCFTR [2] = molecular target: T1, F508delCFTR; experiment: Cell Surface Expression-Horse Radish Peroxidase (CSE-HRP) assay, test compound with co-corrector; type: cell-based; settings: with 2 μM co-corrector; for Maximum % activity (with co-corrector): maximum at any tested concentration, normalized to positive control;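 as to Maximum % activity (with co-corrector): percent of 2 µM positive control corrector over DMSO; co-corrector is that same compound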
Method in brief: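 Surface-expression read-out: luminol luminescence from an HRP tag in the fourth exofacial loop of F508delCFTR, in doxycycline-induced (0.5 μg/mL, 72 h) CFBE41o- cells. Compound plus 2 μM co-corrector added for 18-24 h at 33° C., 8-point 3-fold series up to 20 μM. EC50 from a sigmoidal fit with variable Hill slope, normalised to positive control, triplicate plates.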

SMILES | Emax (F508delCFTR [1]) [%] | EC50 (F508delCFTR [1]) [µM] | Maximum % activity (with co-corrector) (F508delCFTR [2]) | EC50 (F508delCFTR [2]) [µM]
COc1ccc(Br)c2c1C(C(=O)NS(=O)(=O)c1cccc3nccn13)CC2 (centres unmarked) [Example I-78, 4-bromo-N-(imidazo[1,2-a]pyridine-5-sulfonyl)-7-methoxy-2,3-dihydro-1H-indene-1-carboxamide] | ≥ 150 | 3 to 10 | +++ (≥350) | < 3
COc1ccc(Br)c2c1C(C(=O)NS(=O)(=O)c1cccc3ccccc13)C2 (centres unmarked) [Example I-79, 2-bromo-5-methoxy-N-(naphthalene-1-sulfonyl)bicyclo[4.2.0]octa-1,3,5-triene-7-carboxamide] | ≥ 150 | 3 to 10 | +++ (≥350) | < 3
COc1ccc(C2CCC2)c2c1[C@@H](C(=O)NS(=O)(=O)c1cccc3ccccc13)CC2 [Example I-80, (1S)-4-cyclobutyl-7-methoxy-N-(naphthalene-1-sulfonyl)-2,3-dihydro-1H-indene-1-carboxamide] | 50 to 150 | 3 to 10 | +++ (≥350) | 3 to 10
COc1ccc(C2CCC2)c2c1[C@H](C(=O)NS(=O)(=O)c1cccc3ccccc13)CC2 [Example I-81, (1R)-4-cyclobutyl-7-methoxy-N-(naphthalene-1-sulfonyl)-2,3-dihydro-1H-indene-1-carboxamide] | ≥ 150 | < 3 | +++ (≥350) | < 3
O=C(NS(=O)(=O)c1cccc2ccccc12)C1CCCc2cccc(C3CCC3)c21 (centres unmarked) [Example I-82, 8-cyclobutyl-N-(naphthalene-1-sulfonyl)-1,2,3,4-tetrahydronaphthalene-1-carboxamide] | ≥ 150 | < 3 | +++ (≥350) | < 3
CC1(C(=O)NS(=O)(=O)c2cccc3ccccc23)CCc2cccc(C3CCC3)c21 (centres unmarked) [Example I-83, 7-cyclobutyl-1-methyl-N-(naphthalene-1-sulfonyl)-2,3-dihydro-1H-indene-1-carboxamide] | ≥ 150 | < 3 | +++ (≥350) | < 3
COc1ccc(Br)c2c1CC[C@H]2C(=O)NS(=O)(=O)c1cccc2ccccc12 [Example I-84, (1R)-7-bromo-4-methoxy-N-(naphthalene-1-sulfonyl)-2,3-dihydro-1H-indene-1-carboxamide] | ≥ 150 | 3 to 10 | +++ (≥350) | < 3
COc1ccc(Br)c2c1CC[C@@H]2C(=O)NS(=O)(=O)c1cccc2ccccc12 [Example I-85, (1S)-7-bromo-4-methoxy-N-(naphthalene-1-sulfonyl)-2,3-dihydro-1H-indene-1-carboxamide] | 50 to 150 | 3 to 10 | +++ (≥350) | 3 to 10
COc1ccc(C2CC2)c2c1C(C(=O)NS(=O)(=O)c1cccc3ccccc13)CCC2 (centres unmarked) [Example I-88, 5-cyclopropyl-8-methoxy-N-(naphthalene-1-sulfonyl)-1,2,3,4-tetrahydronaphthalene-1-carboxamide] | ≥ 150 | < 3 | +++ (≥350) | < 3
COc1ccc(OC)c2c1CC[C@@H]2C(=O)NS(=O)(=O)c1cccc2ccccc12 [Example I-89, (1S)-4,7-dimethoxy-N-(naphthalene-1-sulfonyl)-2,3-dihydro-1H-indene-1-carboxamide] | 50 to 150 | 3 to 10 | ++ (≥150 and <350) | 3 to 10
COc1ccc(OC)c2c1CC[C@H]2C(=O)NS(=O)(=O)c1cccc2ccccc12 [Example I-90, (1R)-4,7-dimethoxy-N-(naphthalene-1-sulfonyl)-2,3-dihydro-1H-indene-1-carboxamide] | ≥ 150 | 3 to 10 | +++ (≥350) | 3 to 10
